What is called melting point is the temperature, or range, at which the solid turns liquid.

Take `CN(C)CC1=Cc2ncc(NC(=O)c3ccc(-c4ccccc4)cc3)cc2CC1` [Example 133, N-[7-[(Dimethylamino)methyl]-5,6-dihydro-3-quinolinyl][1,1′-biphenyl]-4-carboxamide]: the melting point was in the range of 202 to 203 °C.

In turn, `CN(C)CC1CCc2cc(NC(=O)c3ccc(-c4cccs4)cc3)ccc2C1` (stereo not shown) [Example 34, N-[6-[(N,N-Dimethylamino)methyl]-5,6,7,8-tetrahydro-2-naphthalenyl]-4-(2-thienyl) benzamide] showed a melting point of 165 to 166 °C.

Turning to `CC1=C(CN2CCCC2)CCc2cc(NC(=O)c3ccc(-c4ccc(C)cc4)nc3)ccc21` [Example 228, 6-(4-Methylphenyl)-N-[5-methyl-6-(1-pyrrolidinylmethyl)-7,8-dihydro-2-naphthalenyl]nicotinamide], the melting point was 175 to 176 °C.

Compound `O=C(Nc1ccc2c(c1)CCC(CN1CCCCC1)C2)C1CC(=O)N(c2ccccc2)C1` (stereo not shown) [Example 56, 5-Oxo-1-phenyl-N-[6-(1-piperidinylmethyl)-5,6,7,8-tetrahydro-2-naphthalenyl]-3-pyrrolidinecarboxamide] had a melting point of 162 to 164 °C.

Compound `CN(C)CC1CCc2cc(NC(=O)c3ccc(N4C(=O)c5ccccc5C4=O)cc3)ccc2C1` (stereo not shown) [Example 3, N-[2-(N,N-Dimethylamino)methyl-6-tetralinyl]-4-(1,3-dioxo-1,3-dihydro-2H-isoindol-2-yl) benzamide] displayed a melting point of 235 to 240 °C.

With `CN(C)CC1CCc2cc(NC(=O)c3ccc(OCc4ccccc4)cc3)ccc2C1` (stereo not shown) [Example 5, 4-(Benzyloxy)-N-[2-(N,N-dimethylamino)methyl-6-tetralinyl]benzamide], the melting point lay in the range of 135 to 136 °C.

The compound `COc1ccc(-c2ccc(C(=O)Nc3ccc4c(c3)CCC(CN3CCCC3)=C4)cc2)cc1` [Example 148, 4′-Methoxy-N-[6-(1-pyrrolidinylmethyl)-7,8-dihydro-2-naphthalenyl][1,1′-biphenyl]-4-carboxamide] gave a melting point of 187 to 188 °C.

`CN(C)CC1=Cc2ccc(NC(=O)c3ccc(-c4ccc(F)cc4)cc3)cc2C1` [Example 245, N-[2-[(Dimethylamino)methyl]-1H-inden-6-yl]-4′-fluoro[1,1′-biphenyl]-4-carboxamide] gave a melting point of 209 to 211 °C.

Turning to `Cc1cc(-c2ccncc2)c(C(=O)Nc2ccc(CC(=O)NCCN(C)C)cc2)[nH]1` [Example 197, N-[4-[2-[[2-(Dimethylamino)ethyl]amino]-2-oxoethyl]phenyl]-5-methyl-3-(4-pyridinyl)-1H-pyyrole-2-carboxamide], the melting point is 215 to 218 °C (dec.).

For the compound `COc1ccc(CC(=O)Nc2ccc(CC(=O)NCCN(C)C)cc2)cc1OC` [Example 187, 2-(3,4-dimethoxyphenyl)-N-[4-[2-[[2-(dimethylamino)ethyl]amino]-2-oxoethyl]phenyl]acetamide], the melting point lay within 123 to 124 °C.

The compound `CN(C)CC1CCc2cc(NC(=O)c3ccc(-c4ccc(NC(=O)C(F)(F)F)cc4)cc3)ccc2C1` (stereo not shown) [Example 31, N-[6-[(N,N-Dimethylamino)methyl]-5,6,7,8-tetrahydro-2-naphthalenyl]-4′-[(trifluoroacetyl)amino][1,1′-biphenyl]-4-carboxamide] gave a melting point of 235 to 237 °C.

Compound `CN(C)CC1=Cc2ccc(NC(=O)c3ccc(-c4ccc(Cl)cc4)cc3)cc2C1` [Example 246, 4′-Chloro-N-[2-[(dimethylamino)methyl]-1H-inden-6-yl][1,1′-biphenyl]-4-carboxamide] yielded a melting point of 218 to 220 °C.

Regarding `CN(C)CC1CCc2cc(NC(=O)c3ccc4c(c3)C(=O)c3ccccc3-4)ccc2C1` (stereo not shown) [Example 6, N-[2-(N,N-Dimethylamino)methyl-6-tetralinyl]-9-oxo-9H-fluoren-2-carboxamide], the melting point fell in the range of 224 to 226 °C.

`CC1=C(CN2CCCC2)CCc2cc(NC(=O)N3CCC(c4ccc(C)cc4)CC3)ccc21` [Example 238, 4-(4-Methylphenyl)-N-[5-methyl-6-(1-pyrrolidinylmethyl)-7,8-dihydro-2-naphthalenyl]-1-piperidinecarboxamide]: the melting point was in the range of 159 to 160 °C.

The compound `O=C(Nc1ccc2c(c1)CCC(CN1CCCC1)=C2)c1ccc(-c2ccc(F)cc2F)cc1` [Example 103, 2′,4′-Difluoro-N-[6-(1-pyrrolidinylmethyl)-7,8-dihydro-2-naphthalenyl][1,1′-biphenyl]-4-carboxamide] returned a melting point of 165 to 167 °C.

Compound `CN(C)CC1CCc2cc(NC(=O)c3ccc(-c4ccc(Cl)c(Cl)c4)cc3)ccc2C1` (stereo not shown) [Example 16, 3′,4′-Dichloro-N-[6-[(N,N-dimethylamino)methyl]-5,6,7,8-tetrahydro-2-naphthalenyl][1,1′-biphenyl]-4-carboxamide] returned a melting point of 143 to 145 °C.

`N#CC1=C(CN2CCCC2)CCc2cc(NC(=O)c3ccc(-c4ccc(Cl)cc4)cc3)ccc21` [Example 117, 4′-Chloro-N-[5-cyano-6-(1-pyrrolidinylmethyl)-7,8-dihydro-2-naphthalenyl][1,1′-biphenyl]-4-carboxamide]: the melting point was 191 to 192 °C.

The compound `CCc1ccc(-c2ccc(C(=O)Nc3ccc4c(c3)CCC(CN(C)C)C4)cc2)cc1` (stereo not shown) [Example 11, (4′-Ethylbiphenyl-4-yl)-N-[2-(N,N-dimethylamino)methyl-6-tetralinyl]carboxamide] yielded a melting point of 137 to 138 °C.

In turn, `Cc1ccc(C2CCN(C(=O)Nc3ccc4c(c3)CCC(CN(C)C)=C4)CC2)cc1` [Example 167, N-[6-[(Dimethylamino)methyl]-7,8-dihydro-2-naphthalenyl]-4-(4-methylphenyl)-1-piperidinecarboxamide] registered a melting point of 200 to 202 °C.

Consider `CN(C)CCNC(=O)Cc1ccc(NC(=O)c2ccc(OCc3ccc(-c4ccccc4)cc3)cc2)cc1` [Example 191, 4-([1,1′-Biphenyl]-4-ylmethoxy)-N-[4-[2-[[2-(dimethylamino)ethyl]amino]-2-oxoethyl]phenyl]benzamide], for which the melting point was 204 to 208 °C.

For the compound `COc1ccc(-c2ccc(C(=O)Nc3ccc(CC(=O)NCCN(C)C)cc3)cc2)cc1` [Example 193, N-[4-[2-[[2-(Dimethylamino)ethyl]amino]-2-oxoethyl]phenyl]-4′-methoxy[1,1′-biphenyl]-4-carboxamide], the melting point was 196 to 198 °C (dec.).

Consider `O=C(Nc1ccc2c(c1)CCC(CN1CCCC1)C2)c1ccc(-c2ccccc2)cc1` (stereo not shown) [Example 96, N-[6-(1-Pyrrolidinylmethyl)-5,6,7,8-tetrahydro-2-naphthalenyl][1,1′-biphenyl]-4-carboxamide], for which the melting point lay in the range of 144 to 146 °C.

`CN(C)CC1=Cc2ccc(NC(=O)c3ccc(-c4ccc(Cl)cc4)cc3)cc2CC1` [Example 41, 4′-Chloro-N-[6-[(N,N-dimethyl)methyl]-7,8-dihydro-2-naphthalenyl][1,1′-biphenyl]-4-carboxamide] gave a melting point of 204 to 207 °C.

In turn, `CN(C)CC1CCc2cc(NC(=O)c3ccc(-c4ccccc4)cc3)ccc2C1` (stereo not shown) [compound 24, N-[2-(N,N-Dimethylamino)methyl-6-tetralinyl]-4-biphenylylcarboxamide] had a melting point of 164 to 166 °C.

`CN(C)CC1CCc2cc(NC(=O)c3ccc(-c4ccc(C#N)cc4)cc3)ccc2C1` (stereo not shown) [Example 207, 4′-Cyano-N-[6-[(dimethylamino)methyl]-5,6,7,8-tetrahydro-2-naphthalenyl][1,1′-biphenyl]-4-carboxamide] gave a melting point of 183 to 185 °C.

These data come from patent US7115750B1, “Melanin concentrating hormone antagonist” (Takeda Pharmaceutical Company Limited, priority 1999, dated 2006).
